Where “and” joins values, the source holds several entries; their conditions need not be identical. Identical values can stand only once.
Columns and labels:
[1] = target: Gamma-aminobutyric acid receptor subunit alpha-1 (Rattus norvegicus, UniProt P62813)
[2] = target: Gamma-aminobutyric acid receptor subunit alpha-2 (Rattus norvegicus, UniProt P23576)
[3] = target: Gamma-aminobutyric acid receptor subunit alpha-3 (Rattus norvegicus, UniProt P20236)
[4] = target: Gamma-aminobutyric acid receptor subunit alpha-5 (Rattus norvegicus, UniProt P19969)
Chain of Gamma-aminobutyric acid receptor subunit alpha-5 (P19969 whole entry): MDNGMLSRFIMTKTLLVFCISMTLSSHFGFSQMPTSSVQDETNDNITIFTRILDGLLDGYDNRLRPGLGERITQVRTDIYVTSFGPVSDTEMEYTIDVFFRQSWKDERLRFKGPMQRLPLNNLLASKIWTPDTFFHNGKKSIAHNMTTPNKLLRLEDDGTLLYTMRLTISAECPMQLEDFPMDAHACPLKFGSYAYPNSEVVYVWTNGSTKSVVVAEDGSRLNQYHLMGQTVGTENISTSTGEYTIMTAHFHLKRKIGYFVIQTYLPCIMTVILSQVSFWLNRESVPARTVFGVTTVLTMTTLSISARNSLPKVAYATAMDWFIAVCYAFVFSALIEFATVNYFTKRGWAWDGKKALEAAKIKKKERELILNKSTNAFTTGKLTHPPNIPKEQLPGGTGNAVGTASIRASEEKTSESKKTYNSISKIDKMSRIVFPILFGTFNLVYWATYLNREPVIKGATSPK

Chain of Gamma-aminobutyric acid receptor subunit alpha-2 (P23576 whole entry): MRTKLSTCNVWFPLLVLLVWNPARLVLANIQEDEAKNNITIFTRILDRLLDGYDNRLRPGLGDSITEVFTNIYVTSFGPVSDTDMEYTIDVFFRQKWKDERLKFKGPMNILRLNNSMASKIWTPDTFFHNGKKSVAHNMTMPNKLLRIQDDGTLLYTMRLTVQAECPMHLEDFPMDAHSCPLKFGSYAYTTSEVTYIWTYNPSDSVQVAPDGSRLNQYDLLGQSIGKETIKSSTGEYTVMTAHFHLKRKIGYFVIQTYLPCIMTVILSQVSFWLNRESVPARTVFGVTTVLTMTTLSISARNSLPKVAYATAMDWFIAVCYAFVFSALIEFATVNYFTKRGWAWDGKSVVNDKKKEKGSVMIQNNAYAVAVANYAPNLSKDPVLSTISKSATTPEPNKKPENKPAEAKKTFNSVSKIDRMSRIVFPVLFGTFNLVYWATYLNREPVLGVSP
Chain of Gamma-aminobutyric acid receptor subunit alpha-1 (P62813 whole entry): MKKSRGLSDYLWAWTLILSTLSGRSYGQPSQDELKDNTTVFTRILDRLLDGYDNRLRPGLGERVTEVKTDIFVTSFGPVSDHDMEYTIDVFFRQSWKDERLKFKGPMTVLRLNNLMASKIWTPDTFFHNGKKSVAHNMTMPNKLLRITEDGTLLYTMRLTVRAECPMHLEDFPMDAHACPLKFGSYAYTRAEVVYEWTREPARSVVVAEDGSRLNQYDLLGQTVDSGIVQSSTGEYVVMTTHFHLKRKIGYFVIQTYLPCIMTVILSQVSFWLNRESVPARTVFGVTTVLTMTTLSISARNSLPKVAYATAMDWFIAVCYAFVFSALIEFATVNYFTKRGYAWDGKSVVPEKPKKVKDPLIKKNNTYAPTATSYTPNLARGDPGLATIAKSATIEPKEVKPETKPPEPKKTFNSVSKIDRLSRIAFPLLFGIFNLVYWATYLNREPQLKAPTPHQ
Chain of Gamma-aminobutyric acid receptor subunit alpha-3 (P20236 whole entry I342M/K409L): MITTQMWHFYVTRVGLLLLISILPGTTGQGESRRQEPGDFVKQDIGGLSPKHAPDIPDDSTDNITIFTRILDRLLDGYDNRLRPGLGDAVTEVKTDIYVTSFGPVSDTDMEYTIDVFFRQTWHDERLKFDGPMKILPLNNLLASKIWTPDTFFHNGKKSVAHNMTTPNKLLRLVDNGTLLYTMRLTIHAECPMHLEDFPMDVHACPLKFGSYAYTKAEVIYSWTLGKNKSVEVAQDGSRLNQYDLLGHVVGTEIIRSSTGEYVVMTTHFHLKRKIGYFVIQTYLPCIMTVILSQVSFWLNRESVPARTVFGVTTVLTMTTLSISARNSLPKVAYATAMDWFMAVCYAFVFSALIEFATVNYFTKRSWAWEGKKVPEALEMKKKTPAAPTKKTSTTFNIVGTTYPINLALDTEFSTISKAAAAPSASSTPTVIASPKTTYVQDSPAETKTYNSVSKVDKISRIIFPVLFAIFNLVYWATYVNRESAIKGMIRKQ

Ki [1]: 6.8 nM and 17 nM
Ki [2]: 12.3 nM and 73 nM
Ki [3]: 80.3 nM
Ki [4]: 117 nM and 215 nM
Structure (SMILES): Cn1c2ccc(F)cc2c2c(C(=O)N3CCCC3)cn(-c3ccccc3)c(=O)c21 [6-FLUOR-2-FENYL-9-METHYL-4-(PYRROLIDINE-1-CARBONYL)-9H-PYRIDO[3,4B]INDOOL-1(2H)-ON]

Reference: BindingDB's records for PubMed 11454940 (Sanofi Synthelabo, 2001)
